Results taken from patent US12678412B2, “Substituted tolans for the modulation of microbial colonization” (BioMendics, LLC, priority 2017, dated 2026).

Experiments:
Format in all cases: cell-based
S. typhimurium TA98 = assay: Dose range finding colony forming assay, strain TA98 with metabolic activation
Method: (§1) A series of dose range finding assays were performed with five bacterial strains, S. typhimurium TA97a, TA98, TA100, TA1535, and E. coli WP2 uvrA pKM101, with and without metabolic activation at three plates per dose. The following doses, along with positive and negative controls, were tested: 5000, 2500, 1250, 500, 250, 125, 50, 20, 10, 5, 2, 1, and 0.2 μg/plate. The plates were evaluated for toxicity (a decrease in plate counts with increasing dose and/or a visible thinning of the background lawn) and for precipitation of the test article. Metabolic activation was included in some samples by adding phenobarbital/benzoflavone-induced rat liver S9 fractions with cofactors (S9 mix). Prior to use, freshly thawed aliquots of rat liver S9 were mixed with a sterile cofactor mix. The S9 mix contains a 10% liver S9 concentration and was refrigerated or stored on ice until used. When testing with metabolic activation, the S9 mix was used in the assay tube in place of phosphate buffer.
(§2) Dosing formulations were prepared to deliver all doses in a constant volume of 0.1 mL. The highest dose was prepared from test article weighed to the nearest 0.1 mg and the remaining formulations were prepared as serial dilutions from the high dose stock formulation. Using a permanent marking pen or computer printed labels, assay plates were labeled with the project and study numbers and the date. Assay plates and tubes were labeled with a unique identifier, which was used to match the assay tubes with the properly identified minimal glucose agar plate.
(§3) The pre-incubation method was used to perform the assay. The assay mix consisted of 0.1 mL of the test article formulation or control article, 0.5 mL S9 mix or phosphate buffer, and 0.1 mL of bacterial culture. Assay tubes were incubated at 37±1° C. with gentle agitation for 20±1 minutes, then 2.0-2.5 mL top agar was added to the assay mix and the top agar/assay mix poured onto appropriately labeled minimal glucose agar plates. Once the top agar hardened, the plates were inverted and incubated at 37±1° C. for 48±2 hours. Plates were counted with the Sorcerer (v. 2.2)/Ames Study Manager (v. 1.2.4) system from Perceptive Instruments (Suffolk, UK). With this system, plate counts are automatically transferred from the plate imager (Sorcerer) to a Study Manager spreadsheet, and the data are stored in a secure manner on an Oracle database. Some plates were hand counted, e.g., if sample precipitate interferes with automatic counting or toxicity results in the formation of microcolonies, in which case, counts for these plates were entered into the spreadsheet manually. Plates were scored also with the extent of colonization by a post fix code.

S. typhimurium TA97a = assay: Dose range finding colony forming assay, strain TA97a with metabolic activation
Method: as §1, §2, §3

Acinetobacter baumannii = assay: Colony forming assay, 24 h plate assay, Acinetobacter baumannii; details: Transcutol formulation, FIG. 11
Method: Proliferating cultures of Acinetobacter baumannii were used in a colony forming assay. Frozen stock cultures of Acinetobacter baumannii were thawed and grown overnight in tryptic soy broth (TSB) with shaking at 37° C. The overnight culture (0.5-1.0 mL) was added to 100 mL TSB and grown at 37° C. with shaking and monitored for an optical density of 0.20-0.38 to obtain a final inoculum suspension of approximately 10^8 CFU/mL.
BM3103 was dissolved into Transcutol (diethylene glycol monoethyl ether) at 2.5% w/v and vortexed until dissolved. This concentration was then serial diluted to achieve the remaining concentrations tested. Before plating, 100 μL of the final inoculum (10^8 CFU/mL) was mixed with 20 μL TSB broth and 80 μL of BM3103 doses or vehicle. Tobramycin, 600 μg/mL, served as the positive control. The final plating concentrations for BM3103 were 1, 0.5, 0.25, and 0.1% w/v (44 mM, 22 mM, 11 mM, 4 mM) BM3103. Vehicle and BM3103 formulations contained matching final concentration of 40% v/v Transcutol.
The Transcutol formulations combined with the inoculum were plated onto TSB agar plates. The plates were grown at 37° C. for 24 h, imaged, and the bacteria colonies were counted. The experiment was done four times at each concentration level described above. Colony counts for each treatment were tabulated and the Log of the colony forming units/mL (Log CFU/mL) were determined. The mean and the standard error of the mean were calculated for each treatment.

`COc1ccc(C#Cc2ccc(O)cc2)cc1` [BM3103, 4-hydroxy-4′-methoxytolan] was tested, and the Colony forming units/plate (S. typhimurium TA98; 1 μg/plate) was 8.0 colony forming units/plate, the Individual colony counts (S. typhimurium TA98; 1 μg/plate) was 8 and the Colony forming units/plate (S. typhimurium TA98; 2 μg/plate) was 18.0 colony forming units/plate. For the same compound, the Individual colony counts (S. typhimurium TA98; 2 μg/plate) was 18, the Colony forming units/plate (S. typhimurium TA98; 5 μg/plate) was 16.0 colony forming units/plate and the Individual colony counts (S. typhimurium TA98; 5 μg/plate) was 16. For the same compound, the Colony forming units/plate (S. typhimurium TA98; 10 μg/plate) was 16.0 colony forming units/plate, the Individual colony counts (S. typhimurium TA98; 10 μg/plate) was 16 and the Colony forming units/plate (S. typhimurium TA98; 20 μg/plate) was 0.0 colony forming units/plate. For the same compound, the Individual colony counts (S. typhimurium TA98; 20 μg/plate) was 0, the Colony forming units/plate (S. typhimurium TA98; 50 μg/plate) was 0.0 colony forming units/plate and the Individual colony counts (S. typhimurium TA98; 50 μg/plate) was 0. For the same compound, the Colony forming units/plate (S. typhimurium TA98; 125 μg/plate) was 0.0 colony forming units/plate, the Individual colony counts (S. typhimurium TA98; 125 μg/plate) was 0 and the Colony forming units/plate (S. typhimurium TA98; 250 μg/plate) was 0.0 colony forming units/plate. For the same compound, the Individual colony counts (S. typhimurium TA98; 250 μg/plate) was 0, the Colony forming units/plate (S. typhimurium TA98; 500 μg/plate) was 0.0 colony forming units/plate and the Individual colony counts (S. typhimurium TA98; 500 μg/plate) was 0. The “Plate postfix code (individual colony counts)” value (from here on “Plate postfix code”) (S. typhimurium TA98; 500 μg/plate) was “A P”, the Colony forming units/plate (S. typhimurium TA98; 1250 μg/plate) was 0.0 colony forming units/plate and the Individual colony counts (S. typhimurium TA98; 1250 μg/plate) was 0. The “Plate postfix code” value (S. typhimurium TA98; 1250 μg/plate) was “A P”, the Colony forming units/plate (S. typhimurium TA98; 2500 μg/plate) was 0.0 colony forming units/plate and the Individual colony counts (S. typhimurium TA98; 2500 μg/plate) was 0. For the same compound, the “Plate postfix code” value (S. typhimurium TA98; 2500 μg/plate) was “A P”, the Colony forming units/plate (S. typhimurium TA98; 5000 μg/plate) was 0.0 colony forming units/plate and the Individual colony counts (S. typhimurium TA98; 5000 μg/plate) was 0. For the same compound, the “Plate postfix code” value (S. typhimurium TA98; 5000 μg/plate) was “A P”, the Colony forming units/plate (S. typhimurium TA97a; 0.2 μg/plate) was 89.0 colony forming units/plate and the Individual colony counts (S. typhimurium TA97a; 0.2 μg/plate) was 89. For the same compound, the Colony forming units/plate (S. typhimurium TA97a; 1 μg/plate) was 122.0 colony forming units/plate, the Individual colony counts (S. typhimurium TA97a; 1 μg/plate) was 122 and the Colony forming units/plate (S. typhimurium TA97a; 2 μg/plate) was 78.0 colony forming units/plate. The Individual colony counts (S. typhimurium TA97a; 2 μg/plate) was 78, the Colony forming units/plate (S. typhimurium TA97a; 5 μg/plate) was 78.0 colony forming units/plate and the Individual colony counts (S. typhimurium TA97a; 5 μg/plate) was 78. For the same compound, the Colony forming units/plate (S. typhimurium TA97a; 10 μg/plate) was 77.0 colony forming units/plate, the Individual colony counts (S. typhimurium TA97a; 10 μg/plate) was 77.0 and the Colony forming units/plate (S. typhimurium TA97a; 20 μg/plate) was 0.0 colony forming units/plate. For the same compound, the Individual colony counts (S. typhimurium TA97a; 20 μg/plate) was 0, the Colony forming units/plate (S. typhimurium TA97a; 50 μg/plate) was 0.0 colony forming units/plate and the Individual colony counts (S. typhimurium TA97a; 50 μg/plate) was 0. The Colony forming units/plate (S. typhimurium TA97a; 125 μg/plate) was 0.0 colony forming units/plate, the Individual colony counts (S. typhimurium TA97a; 125 μg/plate) was 0 and the Colony forming units/plate (S. typhimurium TA97a; 250 μg/plate) was 0.0 colony forming units/plate. For the same compound, the Individual colony counts (S. typhimurium TA97a; 250 μg/plate) was 0, the Colony forming units/plate (S. typhimurium TA97a; 500 μg/plate) was 0.0 colony forming units/plate and the Individual colony counts (S. typhimurium TA97a; 500 μg/plate) was 0. The Colony forming units/plate (S. typhimurium TA97a; 1250 μg/plate) was 0.0 colony forming units/plate, the Individual colony counts (S. typhimurium TA97a; 1250 μg/plate) was 0 and the “Plate postfix code” value (S. typhimurium TA97a; 1250 μg/plate) was “A P”. The Colony forming units/plate (S. typhimurium TA97a; 2500 μg/plate) was 0.0 colony forming units/plate, the Individual colony counts (S. typhimurium TA97a; 2500 μg/plate) was 0 and the Colony forming units/plate (S. typhimurium TA97a; 5000 μg/plate) was 0.0 colony forming units/plate. For the same compound, the Individual colony counts (S. typhimurium TA97a; 5000 μg/plate) was 0, the “Reduction of Acinetobacter baumannii bacterial counts” value (“Reduction” for short) (Acinetobacter baumannii; 0.1%) was “no reduction” and the “Reduction” value (Acinetobacter baumannii; 0.25%) was “slight reduction”. For the same compound, the “Reduction” value (Acinetobacter baumannii; 0.5%) was 4 fold and the “Reduction” value (Acinetobacter baumannii; 1%) was “almost a complete reduction”.
